Residues, ends and D or L forms follow the SMILES beside them. No end group written: not given here. *: point of attachment. DOTA = O=C(O)CN1CCN(CC(=O)O)CCN(CC(=O)*)CCN(CC(=O)O)CC1
Assays:
E. coli (ATCC 25922) = assay: Bacterial association assay (MALDI-TOF-MS), E. coli; assay type: binding, Escherichia coli; settings: for Kd: E. coli 1.5 × 10^8 CFU, 20-100 μM compound, 37°C, 3 h, MALDI-TOF-MS, read-out: affinity binding constant (K); for bacterial binding and internalization (qualitative): E. coli, membrane-associated (sample 1) and cell-internalized (sample 2) fractions by MALDI-TOF-MS
Description: (§1) MALDI-TOF-MS analysis was performed on an Autoflex III MALDI-TOF mass spectrometer (Bruker, Coventry, United Kingdom) with a 337 nm nitrogen laser operating in a linear mode at an accelerated voltage of 20 kV. The α-cyano-4-hydroxycinnamic acid matrix was applied: the matrix solution was prepared by making a saturated solution of the matrix powder into TA30 solution (30% ACN and 70% water containing 0.1% TFA). A MALDI plate-sandwich method was used by spotting the compounds between spots of matrix solution. Analyses were done in triplicates; spectra were collected manually and the mass peak intensities were recorded. S. aur and E. coli strains were cultured at 37°C overnight and tested with the peptide (TBIA101), the peptide-conjugate (DOTA-TBIA101), and the gallium(III)-complexed derivative (^natGa-DOTA-TBIA101). The bacterial concentration was kept at 1.5 × 10^8 colony forming units (CFU). Five different concentrations (20, 40, 60, 80, and 100 μM) of the above-mentioned compounds were used for all experiments, following the described method. The final reaction volume was 600 μL. Bacteria and compound mixtures were incubated at 37°C in an orbital shaker at 100 rpm for 3 h. After incubation, the cells were centrifuged at 3000 ×g for 20 min and the supernatant was removed. The bacterial pellet was washed twice with 200 μL of phosphate buffered saline (pH 7.4) and 200 μL of 80% ACN containing 0.1% TFA was added to dissolve the pellet followed by vigorous mixing followed by centrifugation at 3000 ×g for 20 min. The supernatant (sample 1) was collected, representing the membrane-associated compound fraction. The residual pellet was treated with 200 μL of 80% ACN (sample 2), representing the cell-internalized compound fraction. Bacterial persistence in samples 1 and 2 was qualified with MALDI-TOF-MS.

[1] = system: Staphylococcus aureus (ATCC 25923) (S. aur); assay: Bacterial association assay (MALDI-TOF-MS), S. aur; assay type: binding; settings: for affinity binding constant (K): S. aur 1.5 × 10^8 CFU, 20-100 μM compound, 37°C, 3 h, MALDI-TOF-MS; for bacterial binding and internalization (qualitative): S. aur, membrane-associated (sample 1) and cell-internalized (sample 2) fractions by MALDI-TOF-MS
Description: as §1

in vitro = assay type: cell-based; settings: human; for CC50 at 120 h: MT-4 cells
Description: The reduction of 2,3-bis-(2-methoxy-4-nitro-5-sulfophenyl)-2-H-tetrazolium-5-carboxanilide (XTT) was used to determine the cellular cytotoxicity of TBIA101, DOTA-TBIA101, and ^natGa-DOTA-TBIA101, as described by Scudiero et al.. MT-4 cells were obtained through the NIH AIDS Reagent Program, Division of AIDS, NIAID, NIH: MT-4 from Dr. Douglas Richman and were cultured and all incubations were done in RPMI medium containing 10% fetal calf serum at 37°C and 5% CO2-atmosphere. A 6 × 10^5 cells/mL concentration was used to seed cells into 96-well culture plates (total cell number of 2 × 10^4 per well) followed by exposure to eight 5-fold dilutions of the stock compound solutions (1 mg/mL). The plates were incubated for 5 days before XTT was added to react for 4 h. Formazan production was quantified, measuring absorbance at 450 nm (reference wavelength 620 nm), and related to the absorbance of untreated control cells (RPMI background). Cytotoxicity was determined by extrapolating the inhibitory concentration at 50% (IC50).

| Compound | Kd (E. coli (ATCC 25922)) | bacterial binding and internalization (qualitative) (E. coli (ATCC 25922)) | affinity binding constant (K) [1] | bacterial binding and internalization (qualitative) [1] | CC50 at 120 h (in vitro) | IC50 at 5 days (in vitro) |
| --- | --- | --- | --- | --- | --- | --- |
| GGITLVPLP-NH2 (C-terminus assumed) [TBIA101] | 0.022 ± 0.006 nM | binding and internalization | 0.023 ± 0.007 nM | binding and internalization | 63.2 µM |  |
| CC[C@H](C)[C@H](NC(=O)CNC(=O)CNC(=O)CN1CCN(CC(=O)O)CCN(CC(=O)O)CCN(CC(=O)O)CC1)C(=O)N[C@H](C(=O)N[C@@H](CC(C)C)C(=O)N[C@H](C(=O)N1CCC[C@H]1C(=O)N[C@@H](CC(C)C)C(=O)N1CCC[C@H]1C(N)=O)C(C)C)[C@@H](C)O [DOTA-TBIA101] ({DOTA}-GGITLVPLP-NH2) | 0.028 ± 0.006 nM | binding and no detectable internalization | 0.029 ± 0.006 nM | binding and no detectable internalization | 42.1 µM |  |
| CC[C@H](C)[C@H](NC(=O)[C@@H](NC(=O)[C@H](CC(C)C)NC(=O)[C@@H](NC(=O)[C@@H]1CCCN1C(=O)[C@H](CC(C)C)NC(=O)[C@@H]1CCCN1C(=O)CN1CCN(CC(=O)O)CCN(CC(=O)O)CCN(CC(=O)O)CC1)C(C)C)[C@@H](C)O)C(=O)NCC(=O)NCC(N)=O [natGa-DOTA-TBIA101, metal not drawn] ({DOTA}-PLPVLTIGG-NH2) | 2.58 ± 1.04 nM | internalization | 2.97 ± 0.86 nM | internalization |  | 33.7 µM |

From paper PMC4324493, “Synthesis, ^68Ga-Radiolabeling, and Preliminary In Vivo Assessment of a Depsipeptide-Derived Compound as a Potential PET/CT Infection Imaging Agent” (BioMed Research International, 2015)
